Patent publication US8802439B2, “Methods for enhancing infectivity of retroviruses” (priority 2009, dated 2014)
Entries after “also recorded” stand apart in the source; their conditions may differ.

Legend:
HIV-1 = HIV-1 viral production in 293T producer cells, p24 ELISA of supernatants; type: cell-based
Source text: Plasmids: Laboratory-adapted provirus NL4.3, and the CypA-independent NL4.3 CAi2 were kindly provided by Akio Adachi (Department of Virology, Institute of Health Biosciences, The University of Tokushima Graduate School, JAPAN). Mutant R9G89V was a gift from P. Gallay (TSR1) as were NL4.3-GFP and SIV-GFP (originally Dana Gabuzda, Dana Farber Cancer Institute). NL4.3 A92E was kindly provided by W. Phares (Genetics Unit, Novartis Forschungsinstitut, Vienna, Austria). R9Δgp160 plasmid clone was kindly provided by C. Aiken (Vanderbilt Medical Center). VSV-G (CMV-VSV-G) was kindly provided by D. Trono (École Polytechnique Fédérale de Lausanne). Both bMLV-GFP and nMLV-GFP in the form of pCIG3-N, pCIG3-B as well as pCNCG were kindly provided by J. Stoye (National Institute for Medical Research, UK). Isomerase mutant Pin1 (pFLAG-Pin1R68,69A) and WW-domain mutant Pin1 (pFLAG-Pin1 W34A) were constructed by site-directed mutagenesis. Pseudotyping experiments were performed using DNA constructs encoding the VSV-G generously provided by D. Trono. Human Pin1 was cloned into pFLAG (Sigma-Aldrich) making pFLAG-Pin1. Viruses were produced by transfection of 293T cells using either GeneJuice (Novagen) or calcium phosphate. […] All viruses were harvested 24-48 hours post-transfection and filtered (0.2-μM filter, Steriflip Millipore). […]

SIV-GFP = assay: Infectivity of SIV-GFP virions (RT-normalized), GFP fluorescence via FACS; type: cell-based
Experimental: 293T cells were transfected with HIV-1-GFP, SIV-GFP, bMLV-GFP, and nMLV-GFP proviral constructs, and in each case CMV-VSV-G, in the presence or absence of PiB or excess Pin1 as described above. Released virions were normalized via RT assay (EnzChek® Reverse Transcriptase Assay Kit), and infectivity on naïve TZMb1 cells was analyzed by GFP fluorescence via FACS (% cells infected).
(§1) Infection assays for retrovirus: Single-round infections: CD4^+ TZM-bl 100,000 cells/well/mL were seeded onto 24-well plates 24 hours prior to infection. These cells were infected in quadruplicate to 24-well plates. Infectivity was scored using an enzymatic galactosidase activity assay. Specifically, infected TZM-bl cells were washed and lysed, and 20 μl of lysate was transferred to a 96-well plate for detecting β-galactosidase activity. 100 μl of reaction buffer Galacton-Star substrate (Applied Biosystems, Bedford, Mass.), diluted 1:50, was added to 20 μl of lysate, and the light emission was measured over 1 second in a microplate luminometer after 30 minutes incubation. For human PBMC infections, cells were exposed to 10 ng of wild-type virus for 6 hours, washed, and split into two flasks: one with 10 μM PiB added on day 0 and 3, and one without PiB. Replication was monitored by p24 ELISA. For measuring infectivity of GFP-virus, 50,000 TZMb1, sMAGI, OMK, Vero, BSC-1 and CV-1 cells/well/mL were seeded onto 6-well plates respectively 24 hours prior to infection. Viruses were used to infect in duplicate wells, incubated for 48 hours, washed with PBS, trypsinized, fixed in 1% formaldehyde and subsequently analyzed by fluorescence-activated cell sorting (FACS) for percentage cells infected.
[…]. In brief, 293T cells were transfected with a SIV-GFP (Mac293), a CMV driven plasmid encoding VSV-G envelope protein alone, or in the presence of 2.0 μM PiB, 10.0 μM PiB, 20.0 μM PiB, or 40.0 μM PiB. […] Infectivity was measured as GFP fluorescence via FACS. […]
We then examined effect of Pin blocking in non-human primate producer cells on viral infectivity. […] Infectivity was analyzed by GFP fluorescence via FACS. […]

nMLV-GFP = assay: Infectivity of nMLV-GFP virions (RT-normalized), GFP fluorescence via FACS; type: cell-based; settings: produced with PiB; TZM, OMK, sMAGI, Vero, CV-1 target cells
Experimental: as §1, with “For human PBMC infections, cells were exposed to 10 ng of wild-type virus for 6 hours, washed, and split into two flasks: one with 10 μM PiB added on day 0 and 3, and one without PiB.” left out, “For measuring infectivity of GFP-virus, 50,000 TZMb1, sMAGI, OMK, Vero, BSC-1 and CV-1 cells/well/mL were seeded onto 6-well plates respectively 24 hours prior to infection.” left out
We further examined whether blocking Pin1 in producer cells can enhance the infectivity of retroviruses in different primate target cells. […] Infectivity was analyzed by GFP fluorescence via FACS. […] If more cells are infected than the number infected by viruses from untreated cells, this is expressed as a value above 100%—e.g. 2000 cells/10,000 vs 4000 cells/10,000 would be 100% and 200% respectively. […]

293T cells = settings: cell count and trypan blue staining (data not shown)
Source text: To examine a potential role for Pin1 in HIV-1 replication we used two inhibitors of Pin1: juglone and PiB. […] 293T cells were transfected with a proviral construct encoding wild-type HIV-1 in the presence or absence of PiB or juglone.

Pin1 PPIase = Pin1 PPIase (Homo sapiens, UniProt Q13526); settings: cited from earlier work
[1] = cited from earlier work

Chain of Pin1 PPIase (Q13526 whole entry): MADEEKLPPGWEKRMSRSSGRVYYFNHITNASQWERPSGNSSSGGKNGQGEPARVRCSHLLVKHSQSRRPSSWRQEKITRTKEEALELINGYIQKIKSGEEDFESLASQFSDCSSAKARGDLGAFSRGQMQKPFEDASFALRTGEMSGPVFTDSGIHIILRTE

## CCOC(=O)CN1C(=O)c2ccc3c4c(ccc(c24)C1=O)C(=O)N(CC(=O)OCC)C3=O [PiB, diethyl-1,3,6,8-tetrahydro-1,3,6,8-tetraoxobenzo[lmn][3,8]phenanthroline-2,7-diacetate]
HIV-1
  viral production (HIV-1 capsid in viral supernatants by p24 ELISA): Neither inhibitor influences viral production; also recorded: do not alter viral production
SIV-GFP; produced in 293T with 2.0, 10.0, 20.0 or 40.0 μM PiB
  infectivity of VSV-G pseudotyped macaque SIV-GFP: enhanced infectivity in a dose dependent manner
SIV-GFP; produced in 293T with PiB, TZMb1 cells
  boost of SIV-GFP infectivity: 1.5 fold
SIV-GFP; sMAGI, Vero, CV-1 (b135 also OMK) producer cells, human TZM/reporter cells
  infectivity of SIV produced in non-human primate cells: enhanced infectivity
nMLV-GFP
  infectivity of nMLV-GFP in primate target cell panel: enhanced infectivity
293T cells
  producer cell viability: no effect
Pin1 PPIase
  IC50 of Pin1 PPIase activity in vitro: low mM
[1]; 37°
  stability at 37°: instability
[1]; aqueous solution
  stability in aqueous solution: breaks down in aqueous solution
